Experimental data taken from patent US8057829B2, “Methods for repelling insects using sesquiterpene hydrocarbons and their derivatives” (Sterling International Inc., priority 2008, dated 2011).

Experiments:
[1] = system: housefly (Musca domestica) antenna; test: GC-EAD antennal response, housefly; conditions: synthetic mixture, about 100 ng of each compound
[2] = system: Aedes aegypti; test: Y-tube olfactometer behavioral bioassay (spatial repellency); assay type: in vivo; conditions: for Number of mosquitoes in each arm: Blank / Number of mosquitoes in each arm: Bottom / Number of mosquitoes in each arm: Repellent: Aedes aegypti females, release rate per chemical (1-60 mg/day), 10 min; for Number of mosquitoes in each arm: Repellent: two replicates pooled; for SAI (Spatial Activity Index): Aedes aegypti, (Nc − Nt)/(Nc + Nt), −1 to 1, zero indicating no response
Procedure, shortened: (§1)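 Female insects (25-40 per run; mosquitoes 6-10 days old, sand flies 3-10 days) released into a CO2-baited Y-tube holding a treatment dispenser in one arm and a blank in the other; arm counts taken after 10 min at 23-25° C. Arms swapped in a repeat run; pooled data tested by χ2 (df=1).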

[3] = system: Anopheles stephensi; test: as above; assay type: in vivo; conditions: for Number of mosquitoes in each arm: Repellent / Number of mosquitoes in each arm: Blank / Number of mosquitoes in each arm: Bottom: Anopheles stephensi females; for SAI (Spatial Activity Index): Anopheles stephensi
Procedure, shortened: as §1

[4] = system: Phlebotomus papatasi; test: as above; assay type: in vivo; conditions: for SAI (Spatial Activity Index): Phlebotomus papatasi; for Number of mosquitoes in each arm: Repellent: Phlebotomus papatasi (sand fly) females, release rate per chemical (1-35 mg/day); for Number of mosquitoes in each arm: Repellent / Number of mosquitoes in each arm: Blank / Number of mosquitoes in each arm: Bottom: 10 min; for Number of mosquitoes in each arm: Blank / Number of mosquitoes in each arm: Bottom: Phlebotomus papatasi females, release rate per chemical
Procedure, shortened: as §1

[5] = system: houseflies; test: Laboratory sticky trap bioassay of spatial repellency with egg powder attractant; assay type: in vivo, housefly (Musca domestica); conditions: for female house flies per trap / male house flies per trap: egg powder plus repellent; for repellency against houseflies, in words: laboratory trap bioassay with egg powder attractant
Method: Laboratory bioassay tests were carried out to investigate the efficacy of some of the EAD-active compounds described above to act as spatial repellents against several insects. The procedure for the bioassay tests is described in Example 2 below. Briefly stated, the bioassay included using egg powder (EP) as an attractant for flies, while the compound whose insect repellency was being tested was placed in proximity to the egg powder. In FIGS. 11-13, the bioassay was carried out on houseflies using devices known by the designation Trécé Pherocon® VI sticky traps.
The following lab bioassay tests were employed to illustrate the efficacy of the compounds to effectively act as spatial repellents for flies. Three sets of tests were conducted in a fly testing room (23° C., 70% RH, and 12/12 (L/D) light regime illuminated by fluorescent lights). Two sets of tests were carried out using Trécé Pherocon® VI traps with sticky inserts, which were set up on poles evenly spaced on a rotating table. The traps were ca. 1 m above a table surface, and ca. 1 m apart from each other. Two grams of egg powder in a white cap (4 cm in diameter, 0.5 cm in height) used as an attractant was put on the center of the sticky insert in the sticky trap. The potential repellent candidate chemicals were loaded into polyethylene bags, and were hung under the inner roof of the traps, 1-1.5 cm above the egg powder attractant. A control had the empty white cap and blank polyethylene bag, while the positive control had only the egg powder and an empty polyethylene bag. The test table was rotated 1.5 r.p.h. […] About 200-300 houseflies (2-3 days old) were released into the testing room for each test. Tests were normally run from 8:00 am to 5:00 pm, and the numbers of houseflies caught in each trap were counted after each test. The results of these tests are shown in FIGS. 11-13 and described above.

[6] = female housefly antenna, FIG. 3
[7] = release rate per chemical (1-60 mg/day; β-Caryophyllene 10 mg/day), 10 min
[8] = release rate per chemical (β-Caryophyllene 10 mg/day), 10 min
[9] = FIG. 13, egg powder alone 76 females
[10] = FIG. 13, egg powder alone 95 males
[11] = FIG. 12, egg powder alone 35 females
[12] = FIG. 12, egg powder alone 68 males

Compound: C=C1C2CCC3[C@H]2C(C)(C)CCC[C@]13C (single isomer, unassigned; (+)) [(+)-Longifolene]
- GC-EAD antennal activity [1, 6]: active
- Number of mosquitoes in each arm: Blank [2]: 20
- Number of mosquitoes in each arm: Bottom [2]: 37
- Number of mosquitoes in each arm: Repellent [2]: 5
- SAI (Spatial Activity Index) [2]: 0.60
- Number of mosquitoes in each arm: Repellent [3, 7]: 9
- Number of mosquitoes in each arm: Blank [3, 8]: 23
- Number of mosquitoes in each arm: Bottom [3, 8]: 29
- SAI (Spatial Activity Index) ([3]; β-Caryophyllene 10 mg/day): 0.44
- SAI (Spatial Activity Index) [4]: 0.55
- Number of mosquitoes in each arm: Repellent [4]: 5
- Number of mosquitoes in each arm: Blank [4]: 17
- Number of mosquitoes in each arm: Bottom [4]: 41
- female house flies per trap [5, 9]: 4 house flies per trap
- male house flies per trap [5, 10]: one
- repellency against houseflies, in words [5]: strongest repellent against houseflies

Compound: C=C1CC/C=C(/C)CC[C@@H]2[C@@H]1CC2(C)C [Isocaryophyllene, isocaryophyllene]
- GC-EAD antennal activity ([1]; male housefly antenna, FIG. 4): EAD-active
- Number of mosquitoes in each arm: Blank [2]: 35
- Number of mosquitoes in each arm: Bottom [2]: 31
- Number of mosquitoes in each arm: Repellent [2]: 8
- SAI (Spatial Activity Index) [2]: 0.63
- Number of mosquitoes in each arm: Repellent [3, 7]: 8
- Number of mosquitoes in each arm: Blank [3, 8]: 21
- Number of mosquitoes in each arm: Bottom [3, 8]: 26
- SAI (Spatial Activity Index) ([3]; β-Caryophyllene 10 mg/day): 0.45
- SAI (Spatial Activity Index) [4]: 0.23
- Number of mosquitoes in each arm: Repellent [4]: 40
- Number of mosquitoes in each arm: Blank [4]: 64
- Number of mosquitoes in each arm: Bottom [4]: 34
- female house flies per trap [5, 11]: 15 house flies per trap
- male house flies per trap [5, 12]: 14 house flies per trap

Compound: C=C1CC/C=C(\C)CC[C@@H]2[C@@H]1CC2(C)C [β-Caryophyllene, β-caryophyllene]
- GC-EAD antennal activity [1, 6]: active
- GC-EAD antennal activity ([1]; male housefly antenna, FIG. 4): EAD-active
- Number of mosquitoes in each arm: Blank [2]: 20
- Number of mosquitoes in each arm: Bottom [2]: 40
- Number of mosquitoes in each arm: Repellent [2]: 6
- SAI (Spatial Activity Index) [2]: 0.54
- Number of mosquitoes in each arm: Blank ([3]; release rate 35 mg/day, PE-Bag): 22
- Number of mosquitoes in each arm: Bottom ([3]; release rate 35 mg/day, PE-Bag): 43
- Number of mosquitoes in each arm: Repellent ([3]; release rate 35 mg/day, PE-Bag): 5
- Number of mosquitoes in each arm: Repellent [3, 7]: 19
- Number of mosquitoes in each arm: Blank [3, 8]: 23
- Number of mosquitoes in each arm: Bottom [3, 8]: 26
- SAI (Spatial Activity Index) ([3]; release rate 35 mg/day): 0.63
- SAI (Spatial Activity Index) ([3]; β-Caryophyllene 10 mg/day): 0.10
- SAI (Spatial Activity Index) [4]: 0.57
- Number of mosquitoes in each arm: Repellent [4]: 9
- Number of mosquitoes in each arm: Blank [4]: 33
- Number of mosquitoes in each arm: Bottom [4]: 25
- number of house flies per trap ([5]; egg powder attractant plus repellent, FIG. 11, egg powder alone 44): 3.5 house flies per trap
- female house flies per trap [5, 11]: 12 house flies per trap
- male house flies per trap [5, 12]: six
- female house flies per trap [5, 9]: 10 house flies per trap
- male house flies per trap [5, 10]: two
- repellency against houseflies, in words [5]: effective housefly repellents
